We go through 57 compounds from EP4775570A1, “CYP11A1 INHIBITOR, PREPARATION METHOD THEREFOR AND USE THEREOF” (Shenzhen Zhongge Biological Technology Co., Ltd., priority 2023, dated 2025).

Where only a bound is given, the exact number is not on record here.

For this experiment, the target named is T1, CYP11A1 (Homo sapiens, UniProt P05108).
T1 construct: host or cells: NCI-H295R
T1 sequence (P05108 40-521): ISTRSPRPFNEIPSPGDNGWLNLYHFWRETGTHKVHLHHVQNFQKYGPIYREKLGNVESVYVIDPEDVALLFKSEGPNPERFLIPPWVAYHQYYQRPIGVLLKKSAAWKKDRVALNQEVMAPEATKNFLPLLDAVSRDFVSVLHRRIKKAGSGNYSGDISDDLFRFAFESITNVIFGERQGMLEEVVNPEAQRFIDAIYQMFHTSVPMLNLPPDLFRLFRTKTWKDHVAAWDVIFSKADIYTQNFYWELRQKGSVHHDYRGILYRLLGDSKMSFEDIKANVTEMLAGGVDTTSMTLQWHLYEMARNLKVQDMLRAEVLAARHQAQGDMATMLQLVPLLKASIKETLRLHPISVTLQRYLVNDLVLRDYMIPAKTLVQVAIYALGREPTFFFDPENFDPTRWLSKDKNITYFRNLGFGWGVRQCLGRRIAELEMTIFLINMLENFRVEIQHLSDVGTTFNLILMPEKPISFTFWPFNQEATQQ
Briefly: NCI-H295R cellular pregnenolone biosynthesis inhibition assay (ELISA method). The experiment is classed as cell-based. The settings on record: NCI-H295R cells, 3 days incubation, pregnenolone in cell supernatant by ELISA; read-out: IC50. On the procedure:
The experiment aims to test the inhibitory effect of the compounds of the present disclosure on cellular pregnenolone biosynthesis, and to assess the inhibitory effect of the compounds on CYP11A1 target based on their IC50 values.
NCI-H295R cells (MINGZHOUBIO, MZ-2138) cultured in NCI-H295R complete medium (MINGZHOUBIO, MCM-0399).
Using culture medium, NCI-H295R cells were seeded into a new 384-well cell culture plate (Greiner, 781091) at a density of 5,000 cells per well, with 45µL of cell suspension per well. The test compounds were prepared by adding 5µL of compound solution at 10× concentration to each well, to a maximum final concentration of 10µM, followed by 3× serial dilution for 10 points, with a final DMSO concentration of 0.1%, centrifuging at 1,000 rpm for 1 minute at room temperature, and then incubating in a 5% CO2 cell incubator at 37°C for 3 days.
Pregnenolone ELISA kit (Abnova, KA1912) was used for detecting the content of pregnenolone in the supernatant of cell culture. Before detection, the reagents were allowed to come back to room temperature for 1 hour. After taking out the 384-well plate, the cellular supernatant was pipetted and subjected to 5× dilution with the Assay Buffer provided in the kit. A working solution of competitive molecule and a washing solution in accordance with the instructions was prepared. 50µL of diluted cellular supernatant were pipetted into the 96-well plate provided in the ELISA kit, added with 100µL of working solution of competitive molecule per well and the plate was incubated at room temperature for 1.5 hours. After discarding the liquid, the plate was washed with 300µL of washing solution per well three times and dried. After adding 150 µL of substrate chromogenic solution per well, the plate was incubated at room temperature for 10-15 minutes. After adding 50 µL of termination solution per well, the plate was incubated at room temperature for 10-15 minutes and read for absorbance at 450nm with Envision HTS Multilabel Reader.
The wells added with 1µM ODM-208 were defined as 100% inhibition (positive control), the wells containing DMSO at a final concentration of 0.1% were defined as 0% inhibition (negative control), and inhibitory ratio = (absorbance of tested sample - average absorbance of negative control)/(average absorbance of positive control - average absorbance of negative control)*100%. The data were subjected to four-parameter fitting using GraphPad Prism to calculate the IC50 values of the compounds.
A general note: An ELISA detects its analyte on a solid surface through an enzyme-linked reagent.
For orientation: IC50 means the midpoint of a concentration-inhibition curve. For `Cn1c(CN2Cc3ccccc3C2)c(F)cc(-c2cnc3c(c2)CCN(S(C)(=O)=O)C3)c1=O` [compound 126], the concentration for half-maximal inhibition (IC50) is < 100 nM. With `COc1cc(CN2Cc3cccnc3C2)ccc1CCC1CCN(S(C)(=O)=O)CC1` [compound 62] the figure was 100 to 300 nM. With `CC(C)c1cc(CN2Cc3ccccc3C2)ccc1CCC1CCN(S(C)(=O)=O)CC1` [compound 74] the figure was < 100 nM. As for `CCS(=O)(=O)N1CCC(C=Cc2cc(F)c(CN3Cc4ccccc4C3)n(C)c2=O)CC1` [compound 110], the figure is < 100 nM. `COc1nc(CN2Cc3ccccc3C2)c(F)cc1CCC1CCN(S(C)(=O)=O)CC1` [compound 89]: the IC50 is 100 to 300 nM. With `CSc1cc(CN2Cc3ccccc3C2)c(F)cc1OCC1CCN(S(C)(=O)=O)CC1` [compound 33] the figure was < 100 nM. Consider `CS(=O)(=O)N1CCC(CCc2sc(CN3Cc4ccccc4C3)cc2C#N)CC1` [compound 96], for which the half-maximal inhibitory concentration (IC50) is > 300 nM. For the compound `CS(=O)(=O)N1CCC(CCc2cnc(CN3Cc4ccccc4C3)s2)CC1` [compound 87], the 50% inhibitory concentration (IC50) is > 300 nM. As for `COc1cc(CN2Cc3ccccc3C2)ccc1CCC1CCN(S(=O)(=O)C2CC2)CC1` [compound 69], the figure is < 100 nM; as for `C=CCOc1cc(CN2Cc3ccccc3C2)ccc1OCC1CCN(S(C)(=O)=O)CC1` [compound 29], < 100 nM; as for `Cn1c(CN2Cc3ccccc3C2)c(F)cc(C(O)CC2CCN(C(=O)OC(C)(C)C)CC2)c1=O` (stereo not drawn) [compound 122], < 100 nM. With `COc1cc(CN2Cc3ccccc3C2)ccc1/C=C/C1CCN(S(C)(=O)=O)CC1` [compound 44] the figure was < 100 nM; with `Cn1cc(OCC2CCN(S(C)(=O)=O)CC2)c(=O)cc1CN1Cc2ccccc2C1` [compound 1], > 300 nM. With `CS(=O)(=O)N1CCC(COc2cc(F)c(CN3Cc4ccccc4C3)cc2Br)CC1` [compound 25] the figure was < 100 nM; with `Cn1c(CN2Cc3ccccc3C2)c(F)cc(-c2ccc3c(n2)CCN(S(C)(=O)=O)C3)c1=O` [compound 127], > 300 nM. `COc1cc(CN2Cc3ccccc3C2)ccc1OCC1CCN(S(C)(=O)=O)CC1` [compound 19]: the IC50 lay within 100 to 300 nM.

Consider `CS(=O)(=O)N1CCC(C=Cc2cc(F)c(CN3Cc4ccccc4C3)cc2C#N)CC1` [compound 61], for which the concentration for half-maximal inhibition (IC50) fell in the range of 100 to 300 nM. For the compound `COc1cc(CN2Cc3ccccc3C2)ccc1C#CC1(O)CCN(S(C)(=O)=O)CC1` [compound 93], the IC50 lay within 100 to 300 nM. With `[2H]C([2H])([2H])n1c(CN2Cc3ccccc3C2)c(F)cc(CCC2CCN(S(C)(=O)=O)CC2)c1=O` [compound 106] the figure was < 100 nM; with `CS(=O)(=O)N1CCC(COc2ccc(CN3Cc4ccccc4C3)cc2OC(F)(F)F)CC1` [compound 20], 100 to 300 nM; with `Cn1c(CN2Cc3ccccc3C2)c(F)cc(CCN2CCN(S(C)(=O)=O)CC2)c1=O` [compound 118], 100 to 300 nM. With `[2H]C([2H])(c1c(F)cc(CCC2CCN(S(C)(=O)=O)CC2)c(=O)n1C)N1Cc2ccccc2C1` [compound 116] the figure was < 100 nM.

Turning to `Cn1c(CN2Cc3ccc(F)cc3C2)c(F)cc(CCC2CCN(S(C)(=O)=O)CC2)c1=O` [compound 101], the concentration for half-maximal inhibition (IC50) is > 300 nM. As for `CCS(=O)(=O)N1CCC(CCc2ccc(CN3Cc4ccccc4C3)cc2OC)CC1` [compound 67], the figure is < 100 nM; as for `COc1cc(CN2Cc3ccccc3C2)ccc1COC1CCN(S(C)(=O)=O)CC1` [compound 42], > 300 nM; as for `COc1nc(CN2Cc3ccccc3C2)ccc1OCC1CCN(S(C)(=O)=O)CC1` [compound 4], 100 to 300 nM. As for `CS(=O)(=O)N1CCC(COc2ccc(CN3Cc4ccccc4C3)cc2F)CC1` [compound 15], the figure is < 100 nM; as for `Cn1c(CN2Cc3cccc(F)c3C2)c(F)cc(CCC2CCN(S(C)(=O)=O)CC2)c1=O` [compound 100], > 300 nM.

For `[2H]C([2H])(c1c(F)cc(CCC2CCN(C(=O)OC(C)(C)C)CC2)c(=O)n1C)N1Cc2ccccc2C1` [compound 121], the IC50 is < 100 nM. As for `OCCN1CCC(COc2cc(F)c(CN3Cc4ccccc4C3)cc2Br)CC1` [compound 55], the figure is > 300 nM.

Consider `CS(=O)(=O)N1CCC(COc2ccc(CN3Cc4ccccc4C3)cc2-c2nccs2)CC1` [compound 38], for which the IC50 is > 300 nM. As for `CS(=O)(=O)N1CCC(COc2cnc(CN3Cc4ccccc4C3)cn2)CC1` [compound 9], the figure is > 300 nM. In the case of `Cn1c(CN2Cc3ccccc3C2)ccc(CCC2CCN(S(C)(=O)=O)CC2)c1=O` [compound 90], the IC50 is < 100 nM. With `Fc1cc(OCC2CCNCC2)c(Br)cc1CN1Cc2ccccc2C1` [compound 56] the figure was > 300 nM; with `Cn1c(CN2Cc3ccccc3C2)c(F)cc(C=CC2CCN(S(=O)(=O)C3CC3)CC2)c1=O` [compound 111], < 100 nM. With `CCc1cc(CN2Cc3ccccc3C2)ccc1OCC1CCN(S(C)(=O)=O)CC1` [compound 13] the figure was < 100 nM; with `Cn1c(CN2Cc3ccccc3C2)c(F)cc(CCC2CCCN(S(C)(=O)=O)C2)c1=O` (stereo not drawn) [compound 91], > 300 nM; with `COc1cc(CN2Cc3ccccc3C2)ccc1C=CC1CCN(C(=O)OC(C)(C)C)CC1` [compound 50], < 100 nM. In the case of `C=Cc1cc(CN2Cc3ccccc3C2)ccc1OCC1CCN(S(C)(=O)=O)CC1` [compound 26], the 50% inhibitory concentration (IC50) was < 100 nM.

As to `Cn1c(CN2Cc3ccccc3C2)c(F)cc(C(F)=CC2CCN(C(=O)OC(C)(C)C)CC2)c1=O` [compound 128], the IC50 was in the range of 100 to 300 nM.

Regarding `COc1cc(CN2Cc3ccccc3C2)c(F)cc1OCC1CCN(S(C)(=O)=O)CC1` [compound 22], the half-inhibitory concentration (IC50) was < 100 nM. As to `CNC(=O)c1cc(CN2Cc3ccccc3C2)ccc1OCC1CCN(S(C)(=O)=O)CC1` [compound 24], the concentration for half-maximal inhibition (IC50) is > 300 nM.

Regarding `COc1cc(CN2Cc3ccccc3C2)ccc1Oc1cccc2c1CCN(S(C)(=O)=O)C2` [compound 45], the 50% inhibitory concentration (IC50) is > 300 nM. With `CS(=O)(=O)N1CCC(CCn2ccc(CN3Cc4ccccc4C3)cc2=O)CC1` [compound 5] the figure was > 300 nM; with `Cn1c(CN2Cc3ccccc3C2)c(F)cc(C(F)=CC2CCN(S(C)(=O)=O)CC2)c1=O` [compound 123], < 100 nM. As for `Cn1c(CN2Cc3ccccc3C2)c(F)cc(CCN2CCN(C(=O)OC(C)(C)C)CC2)c1=O` [compound 129], the figure is < 100 nM; as for `Cn1c(CN2Cc3ccccc3C2)c(F)cc(C(=O)CC2CCN(C(=O)OC(C)(C)C)CC2)c1=O` [compound 125], < 100 nM. As for `Cn1c(CN2Cc3cccnc3C2)c(F)cc(CCC2CCN(S(C)(=O)=O)CC2)c1=O` [compound 98], the figure is 100 to 300 nM; as for `COc1cc(CN2Cc3ccccc3C2)ccc1CCC1CCN(C(C)=O)CC1` [compound 70], < 100 nM. Regarding `COc1cc(CN2Cc3ccccc3C2)ccc1CCC1(O)CCN(S(C)(=O)=O)CC1` [compound 92], the IC50 was 100 to 300 nM. As for `Cn1c(CN2Cc3ccccc3C2)c(F)cc(C=CC2CCN(S(C)(=O)=O)CC2)c1=O` [compound 104], the IC50 was < 100 nM. As for `CS(=O)(=O)N1CCC(COc2ccc(CN3Cc4ccccc4C3)cc2O)CC1` [compound 18], the figure is < 100 nM. As for `COc1cc(CN2Cc3ccccc3C2)ccc1C#CC1=CCS(=O)(=O)CC1` [compound 97], the concentration for half-maximal inhibition (IC50) is > 300 nM.

On to `CS(=O)(=O)N1CCC(COc2cc(F)c(CN3Cc4ccccc4C3)cc2O)CC1` [compound 52], for which the IC50 is < 100 nM. For `Cn1c(CN2Cc3ccccc3C2)c(F)cc(C=CC2CCN(C(=O)OC(C)(C)C)CC2)c1=O` [compound 105], the half-maximal inhibitory concentration (IC50) was < 100 nM. Turning to `CC(C)c1cc(CN2Cc3ccccc3C2)ccc1OCC1CCN(S(C)(=O)=O)CC1` [compound 14], the half-maximal inhibitory concentration (IC50) is < 100 nM. With `C=CS(=O)(=O)N1CCC(CCc2ccc(CN3Cc4ccccc4C3)cc2OC)CC1` [compound 82] the figure was 100 to 300 nM.
